Assay results reported in ChEMBL document CHEMBL1781952, “Hippolides A-H, acyclic manoalide derivatives from the marine sponge Hippospongia lachne” (J Nat Prod, 2011).

Experiments:
[1] = test system: HCT-116; test: Cytotoxicity against human HCT116 cells after 48 hrs by MTT assay; format: functional, cell-based; settings: HCT-116, 48 h
[2] = molecular target: Protein kinase C gamma type (Homo sapiens, UniProt P05129); test: Binding affinity at PKCgamma after 1 hr by luminescent kinase assay
[3] = test system: A549; test: Cytotoxicity against human A549 cells after 48 hrs by MTT assay; format: functional, cell-based; settings: A549, 48 h
[4] = molecular target: T1, Tyrosine-protein phosphatase non-receptor type 1 (Homo sapiens, UniProt P18031); test: Inhibition of recombinant PTP1B catalytic domain using pNPP as substrate assessed as pNP release
T1 sequence (P18031 whole entry): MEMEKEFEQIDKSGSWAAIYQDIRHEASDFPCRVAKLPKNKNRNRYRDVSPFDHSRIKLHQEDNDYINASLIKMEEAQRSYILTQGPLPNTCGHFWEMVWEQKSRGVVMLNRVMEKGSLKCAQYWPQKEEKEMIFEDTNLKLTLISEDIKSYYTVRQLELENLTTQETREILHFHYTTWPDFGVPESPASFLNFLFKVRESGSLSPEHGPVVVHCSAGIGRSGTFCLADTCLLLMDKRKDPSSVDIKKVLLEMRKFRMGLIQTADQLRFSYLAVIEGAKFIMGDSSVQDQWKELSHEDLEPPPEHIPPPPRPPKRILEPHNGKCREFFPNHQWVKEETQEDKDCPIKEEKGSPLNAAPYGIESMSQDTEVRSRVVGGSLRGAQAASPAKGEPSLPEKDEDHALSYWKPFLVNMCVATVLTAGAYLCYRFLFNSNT

[5] = test system: HeLa; test: Cytotoxicity against human HeLa cells after 48 hrs by MTT assay; format: functional, cell-based
[6] = molecular target: Protein kinase C alpha type (Homo sapiens, UniProt P17252); test: Binding affinity at PKCalpha after 1 hr by luminescent kinase assay

Row | IC50 [2] [µM] | IC50 [4] [µM] | IC50 [6] [µM] | Compound | IC50 [1] [µM] | IC50 [3] [µM] | IC50 [5] [µM]
1 | 62 | 23.8 |  | CC(C)=CCC/C(C)=C/CC/C(C)=C/CCC1=CC[C@H]([C@@H]2CC(=O)NC2=O)O[C@@H]1O [HIPPOLIDE A] | 9.78 | 0.0522 | 0.048
2 |  | 39.7 |  | CO[C@H]1O[C@@H]([C@@H]2CC(=O)NC2=O)CC=C1CC/C=C(\C)CC/C=C(\C)CCC=C(C)C [HIPPOLIDE B] | 35.1 |  | 
3 |  |  | 40.3 | CC(C)=CCC/C(C)=C/CC/C(C)=C/CC/C(=C\C[C@H]1OC(=O)C=C1CO)CO [HIPPOLIDE E] |  |  | 
